Experimental data taken from PubChem BioAssay AID330 (DTP/NCI, 2004).
“And” between values parts separate entries of the source, which are not always exact repeats. Equal entries are not always repeated. Toxic doses and inconclusive results are not listed.

System: P388 leukemia ip, CD2F1 mice, survival T/C
Assay: NCI In Vivo Anticancer Drug Screen. Data for tumor model P388 Leukemia (intraperitoneal) in CD2F1 (CDF1) mice
Conditions: endpoint: median survival time, higher = longer survival
Outline: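 Mice carrying the transplanted tumor received test compound or vehicle. Survival was recorded in each group, and the value is the treated-group measurement divided by that of the vehicle-treated control group.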

[1] = dose: 100.0 mg/kg/injection, schedule: Q01DX009 (ip), vehicle: saline
[2] = dose: 200.0 mg/kg/injection, schedule: Q01DX009 (ip), vehicle: saline
[3] = dose: 60.0 mg/kg/injection, schedule: Q01DX005 (ip), vehicle: saline with Tween-80
[4] = dose: 120.0 mg/kg/injection, schedule: Q01DX005 (ip), vehicle: saline with Tween-80
[5] = dose: 240.0 mg/kg/injection, schedule: Q01DX005 (ip), vehicle: saline with Tween-80
[6] = dose: 50.0 mg/kg/injection, schedule: Q01DX009 (ip), vehicle: Klucel (hydroxypropylcellulose) (HPC)
[7] = dose: 100.0 mg/kg/injection, schedule: Q01DX009 (ip), vehicle: Klucel (hydroxypropylcellulose) (HPC)
[8] = dose: 60.0 mg/kg/injection, schedule: Q01DX005 (ip), vehicle: Klucel (hydroxypropylcellulose) (HPC)
[9] = dose: 120.0 mg/kg/injection, schedule: Q01DX005 (ip), vehicle: Klucel (hydroxypropylcellulose) (HPC)
[10] = dose: 240.0 mg/kg/injection, schedule: Q01DX005 (ip), vehicle: Klucel (hydroxypropylcellulose) (HPC)
[11] = dose: 50.0 mg/kg/injection, schedule: Q01DX009 (ip), vehicle: saline
[12] = dose: 50.0 mg/kg/injection, schedule: Q01DX005 (ip), vehicle: Klucel (hydroxypropylcellulose) (HPC)
[13] = dose: 100.0 mg/kg/injection, schedule: Q01DX005 (ip), vehicle: Klucel (hydroxypropylcellulose) (HPC)
[14] = dose: 200.0 mg/kg/injection, schedule: Q01DX005 (ip), vehicle: Klucel (hydroxypropylcellulose) (HPC)

In the case of `C=C1[C@@H](OC(C)=O)C[C@@H]2C[C@]3(C)C(OC(C)=O)CC(C)(C)[C@@H]3C12O` (stereo partly specified), the T/C (dose: 1.75 mg/kg/injection, schedule: Q01DX005 (ip), vehicle: saline) is reported as 98 % of control, the T/C (dose: 3.5 mg/kg/injection, schedule: Q01DX005 (ip), vehicle: saline) is reported as 100 % of control and the T/C (dose: 7.0 mg/kg/injection, schedule: Q01DX005 (ip), vehicle: saline) is reported as 97 % of control.
`COC(=O)C1=C(\OC)c2c(ccc(OC)c2OC)C(=O)N2CCc3cc4c(cc3\C2=C\1C(=O)OC)OCO4` was tested, and the T/C (dose: 50.0 mg/kg/injection, schedule: Q04DX002 (ip), vehicle: saline with Tween-80) was 103 % of control, the T/C (dose: 100.0 mg/kg/injection, schedule: Q04DX002 (ip), vehicle: saline with Tween-80) was 105 % of control and the T/C (dose: 200.0 mg/kg/injection, schedule: Q04DX002 (ip), vehicle: saline with Tween-80) was 94 % of control.
For `Nc1c[nH]ccc1=O`, the T/C [1] was 102 % of control, the T/C [2] was 100 % of control and the T/C (dose: 400.0 mg/kg/injection, schedule: Q01DX009 (ip), vehicle: saline) was 99 % of control.
In the case of `CN(C)c1ccc(N=C2C(c3ccccc3)=[N+]([O-])c3ccccc32)cc1`, the T/C [3] is reported as 93 % of control, the T/C [4] is reported as 93 % of control and the T/C [5] is reported as 100 % of control.
For `CC(=O)C1CC(CC(=O)O)C1(C)C` (stereo unspecified), the T/C (dose: 25.0 mg/kg/injection, schedule: Q01DX009 (ip), vehicle: Klucel (hydroxypropylcellulose) (HPC)) was 96 % of control, the T/C [6] was 108 % of control and 92 % of control and the T/C [7] was 96 % of control and 97 % of control. The T/C (dose: 200.0 mg/kg/injection, schedule: Q01DX009 (ip), vehicle: Klucel (hydroxypropylcellulose) (HPC)) was 99 % of control and 100 % of control and the T/C (dose: 400.0 mg/kg/injection, schedule: Q01DX009 (ip), vehicle: Klucel (hydroxypropylcellulose) (HPC)) was 100 % of control.
With `CCn1c(Cl)c(/C=N/NS(=O)(=O)c2ccc(C)cc2)c2cccc(/C=N\NS(=O)(=O)c3ccc(C)cc3)c21` the T/C (dose: 50.0 mg/kg/injection, schedule: Q01DX001 (ip), vehicle: Klucel (hydroxypropylcellulose) (HPC)) was 99 % of control and the T/C (dose: 100.0 mg/kg/injection, schedule: Q01DX001 (ip), vehicle: Klucel (hydroxypropylcellulose) (HPC)) was 96 % of control.
With `C=C1C(=O)OC2/C=C(/CO)C3(O)CC(O)C(C)(CC(OC(=O)/C(C)=C/C)C12)O3` (stereo unspecified) the T/C (dose: 10.0 mg/kg/injection, schedule: Q01DX009 (ip), vehicle: saline with Tween-80) was 114 % of control and 117 % of control and the T/C (dose: 20.0 mg/kg/injection, schedule: Q01DX009 (ip), vehicle: saline with Tween-80) was 124 % of control.
For `O=C(N/N=C/c1ccccc1[O-])c1ccccc1O.O=C(N/N=C/c1ccccc1[O-])c1ccccc1O.[Fe+2]`, the T/C [8] was 103 % of control, the T/C [9] was 108 % of control and the T/C [10] was 94 % of control.
With `O=C(CNC(=O)Nc1ccc(NC(=O)NCC(=O)Nc2ccc(C3=NCCN3)cc2)cc1)Nc1ccc(C2=NCCN2)cc1` the T/C [11] was 105 % of control and 106 % of control, the T/C [1] was 93 % of control and the T/C [2] was 111 % of control and 97 % of control.
For `CCn1c(=O)c2[nH]c(Cl)nc2n(C2CC2)c1=O`, the T/C [6] was 99 % of control and the T/C [7] was 101 % of control.
In the case of `COCCn1c(=O)[nH]c(=O)c2c(Nc3ccccc3)snc21`, the T/C (dose: 25.0 mg/kg/injection, schedule: Q01DX009 (ip), vehicle: saline) is reported as 100 % of control and 93 % of control, the T/C [11] is reported as 98 % of control and 99 % of control and 89 % of control and the T/C (dose: 100.0 mg/kg/injection, schedule: Q01DX009 (ip), vehicle: saline with Tween-80) is reported as 95 % of control. The T/C [1] was 98 % of control and 112 % of control and 97 % of control, the T/C (dose: 200.0 mg/kg/injection, schedule: Q01DX009 (ip), vehicle: saline with Tween-80) was 100 % of control and the T/C [2] was 99 % of control.
For `CC(C)NC(C#N)C(C)C` (stereo unspecified), the T/C (dose: 3.12 mg/kg/injection, schedule: Q01DX005 (ip), vehicle: Klucel (hydroxypropylcellulose) (HPC)) was 99 % of control, the T/C (dose: 6.25 mg/kg/injection, schedule: Q01DX005 (ip), vehicle: Klucel (hydroxypropylcellulose) (HPC)) was 108 % of control and the T/C (dose: 12.5 mg/kg/injection, schedule: Q01DX005 (ip), vehicle: Klucel (hydroxypropylcellulose) (HPC)) was 102 % of control.
`CC1CN(C(C)(C)C)CO1` (stereo unspecified) was tested, and the T/C (dose: 12.5 mg/kg/injection, schedule: Q01DX005 (ip), vehicle: saline) was 112 % of control and 88 % of control, the T/C (dose: 25.0 mg/kg/injection, schedule: Q01DX005 (ip), vehicle: saline) was 107 % of control and the T/C (dose: 50.0 mg/kg/injection, schedule: Q01DX005 (ip), vehicle: saline) was 114 % of control and 117 % of control and 119 % of control. The T/C (dose: 100.0 mg/kg/injection, schedule: Q01DX005 (ip), vehicle: saline) was 119 % of control and 120 % of control and the T/C (dose: 200.0 mg/kg/injection, schedule: Q01DX005 (ip), vehicle: saline) was 107 % of control.
With `O=C(NC[N+]12CCO[B-]1(c1ccccc1)OCC2)c1ccccc1O` (stereo unspecified) the T/C [12] was 106 % of control, the T/C [13] was 98 % of control and the T/C [14] was 103 % of control.
`O=C1CSC(c2cccs2)N1c1nccs1` (stereo unspecified) was tested, and the T/C [12] was 102 % of control, the T/C [13] was 106 % of control and the T/C [14] was 100 % of control.
With `CC1CCC2CC(=O)NC(=O)CC12` (stereo unspecified) the T/C (dose: 6.25 mg/kg/injection, schedule: Q04DX003 (ip), vehicle: saline with Tween-80) was 100 % of control, the T/C (dose: 12.5 mg/kg/injection, schedule: Q04DX003 (ip), vehicle: saline with Tween-80) was 100 % of control and the T/C (dose: 25.0 mg/kg/injection, schedule: Q04DX003 (ip), vehicle: saline with Tween-80) was 104 % of control.
With `COc1cccc2c1C(=O)c1c(O)c3c(c(O)c1C2=O)C[C@@](O)(C(C)O)C[C@@H]3OC1CC(N2CCOCC2C#N)C(O)C(C)O1` (stereo partly specified) the T/C (dose: 0.03 mg/kg/injection, schedule: Q04DX003 (ip), vehicle: water) was 120 % of control, the T/C (dose: 0.1 mg/kg/injection, schedule: Q04DX003 (ip), vehicle: water) was 166 % of control and the T/C (dose: 12.5 micrograms/kg/injection, schedule: Q04DX003 (ip), vehicle: water) was 107 % of control. For the same compound, the T/C (dose: 25.0 micrograms/kg/injection, schedule: Q04DX003 (ip), vehicle: water) was 101 % of control, the T/C (dose: 50.0 micrograms/kg/injection, schedule: Q04DX003 (ip), vehicle: water) was 106 % of control and the T/C (dose: 100.0 micrograms/kg/injection, schedule: Q04DX003 (ip), vehicle: water) was 120 % of control.
For `COC(=O)C1=CSCCC1=O`, the T/C [12] was 105 % of control, the T/C [13] was 106 % of control and the T/C [14] was 117 % of control.
`ON1c2ccccc2-c2ccccc2C1(c1ccccc1)c1ccccc1` was tested, and the T/C (dose: 50.0 mg/kg/injection, schedule: Q01DX005 (ip), vehicle: saline with Tween-80) was 94 % of control, the T/C (dose: 100.0 mg/kg/injection, schedule: Q01DX005 (ip), vehicle: saline with Tween-80) was 99 % of control and the T/C (dose: 200.0 mg/kg/injection, schedule: Q01DX005 (ip), vehicle: saline with Tween-80) was 90 % of control.
With `O=C(NC(Cc1ccccc1)C(=O)O)OCCc1ccccn1` (stereo unspecified) the T/C [8] was 104 % of control, the T/C [9] was 92 % of control and the T/C [10] was 102 % of control.
`C/C(=C\Cc1cc(O)cc(C)c1O)CC(=O)CC1(C)CCCC1(C)C(=O)/C=C/C(C)(C)O` (stereo unspecified) was tested, and the T/C (dose: 1.5 mg/kg/injection, schedule: Q01DX009 (ip), vehicle: saline with Tween-80) was 110 % of control, the T/C (dose: 3.0 mg/kg/injection, schedule: Q01DX009 (ip), vehicle: saline with Tween-80) was 101 % of control and the T/C (dose: 6.0 mg/kg/injection, schedule: Q01DX009 (ip), vehicle: saline with Tween-80) was 104 % of control. For the same compound, the T/C (dose: 12.0 mg/kg/injection, schedule: Q01DX009 (ip), vehicle: saline with Tween-80) was 103 % of control.
In the case of `O=c1oc(NC2CCCCC2)nc2ccccc12`, the T/C [8] is reported as 93 % of control, the T/C [9] is reported as 92 % of control and the T/C [10] is reported as 92 % of control.
With `[CH3][Sn]([CH2]c1ccccc1)([CH2]c1ccccc1)[c]1ccccc1` the T/C (dose: 100.0 mg/kg/injection, schedule: Q04DX003 (ip), vehicle: saline with Tween-80) was 98 % of control, the T/C (dose: 200.0 mg/kg/injection, schedule: Q04DX003 (ip), vehicle: saline with Tween-80) was 105 % of control and the T/C (dose: 400.0 mg/kg/injection, schedule: Q04DX003 (ip), vehicle: saline with Tween-80) was 100 % of control.
`CCC(C)OC(=Nc1cccc2ccccc12)Nc1cccc2ccccc12` (stereo unspecified) was tested, and the T/C [3] was 92 % of control, the T/C [4] was 93 % of control and the T/C [5] was 93 % of control.
`COC(=O)c1nnn(-c2ccc(Cl)cc2Cl)c1N` was tested, and the T/C [3] was 103 % of control, the T/C [4] was 103 % of control and the T/C [5] was 122 % of control.
For `COc1cccc2c1C(=O)c1c(O)c(CCl)cc(O)c1C2=O`, the T/C (dose: 3.75 mg/kg/injection, schedule: Q01DX005 (ip), vehicle: saline with Tween-80) was 99 % of control, the T/C (dose: 7.5 mg/kg/injection, schedule: Q01DX005 (ip), vehicle: saline with Tween-80) was 92 % of control and the T/C (dose: 15.0 mg/kg/injection, schedule: Q01DX005 (ip), vehicle: saline with Tween-80) was 89 % of control.
